For 22 molecules, DC50 results are on record in patent US20250051338A1, “TYK2 DEGRADERS AND USES THEREOF” (Kymera Therapeutics, Inc., priority 2021, published 2025).

Format in all cases: cell-based
Assay [1] addresses T1, TYK2 (Homo sapiens, UniProt P29597). The experiment in a line: TYK2 degradation MSD assay in human PBMC cells. The arrangement: endogenous in cells; host or cells: human PBMC. The settings on record: 4 to 24 hours incubation, read-out: TYK2 MSD DC50 rating in human PBMC. As for the experimental part:
(§1) Example 3. TYK2 Degradation MSD Assay in EBV-B, OCI-LY10, and Human PBMC Cells
(§2) Degradation of TYK2 in cells was quantitatively measured using Meso Scale Discovery (MSD) technology. EBV-B, OCI-LY10 or human PBMC cells were seeded in 96-well plates with a density of 0.4 million cells per well in 100 μl fresh media. Compounds were then added to the assay plates with a final top concentration of 1 to 10 μM in a 1:3 dilution series with total of 9 doses. The assay plates were then incubated for 4 to 24 hours at 37° C. under 5% CO2. The assay plates were then centrifuged for 5 minutes, and the cell pellets were treated with 100 μl/well RIPA lysis buffer (Boston Bioproducts, BP-115D) with protease and phosphatase inhibitors (Roche, 05892791001 and 04906837001). To prepare MSD assay plates (MSD, L15XA), the plates were coated with the capture antibody (Santa Cruz Biotechnology, SC-5271) in PBS, at 40 μl/well. The plates were then incubated overnight at 4° C., washed 3 times with 150 μl/well TBST buffer (Cell Signaling Technology, 9997S) and blocked with 150 μl/well blocking buffer (MSD, R93BA-4). Cell lysates were then added to MSD assay plates and the plates were incubated at room temperature for 1 hour. The plates were then washed 3 times with 150 μl/well TBST buffer and 25 μl/well primary detection antibody (Cell Signaling Technology, #9312). The assay plates were then incubated at room temperature for 1 hour, washed 3 times with 150 μl/well TBST buffer, and 25 μl/well secondary detection antibody, SULFO-TAG anti-rabbit antibody (MSD, R32AB-1) were added. The assay plates were then incubated at room temperature for 1 hour, washed 3 times with 150 μl/well TBST buffer, and 150 μl/well MSD reading buffer (MSD, R92TC-2) were added. The plates were then analyzed by an MSD reader. The data was analyzed by GraphPad Prism and the dose dependent TYK2 degradation was fit using the four-parameter inhibitor vs. response nonlinear regression. The DC50 data were measured and categorized into different levels in Table H. The compound with DC50 less than or equal to 1 nM is marked as A, with DC50 more than 1 nM and less than or equal to 10 nM is marked as B, with DC50 more than 10 nM and less than or equal to 100 nM is marked as C, and with DC50 more than 100 nM or not available is marked as D.

For assay [2], the target named is T1, TYK2. As to the kind of experiment: TYK2 degradation MSD assay in OCI-LY10 cells. The arrangement: endogenous in cells; host or cells: EBV-B cells. Conditions: 4 to 24 hours incubation, read-out: TYK2 MSD DC50 rating in OCI-LY10. As for the experimental part:
as §1, §2

The target of assay [3] is T1, TYK2. As to the kind of experiment: TYK2 degradation MSD assay in EBV-B cells. The arrangement: endogenous in cells; host or cells: EBV-B cells. The settings on record: 4 to 24 hours incubation, read-out: TYK2 MSD DC50 rating in EBV-B. As for the experimental part:
as §1, §2

A word on the DC50: it is the concentration at which degradation of the target reaches its halfway point.

T1 sequence (P29597 whole entry): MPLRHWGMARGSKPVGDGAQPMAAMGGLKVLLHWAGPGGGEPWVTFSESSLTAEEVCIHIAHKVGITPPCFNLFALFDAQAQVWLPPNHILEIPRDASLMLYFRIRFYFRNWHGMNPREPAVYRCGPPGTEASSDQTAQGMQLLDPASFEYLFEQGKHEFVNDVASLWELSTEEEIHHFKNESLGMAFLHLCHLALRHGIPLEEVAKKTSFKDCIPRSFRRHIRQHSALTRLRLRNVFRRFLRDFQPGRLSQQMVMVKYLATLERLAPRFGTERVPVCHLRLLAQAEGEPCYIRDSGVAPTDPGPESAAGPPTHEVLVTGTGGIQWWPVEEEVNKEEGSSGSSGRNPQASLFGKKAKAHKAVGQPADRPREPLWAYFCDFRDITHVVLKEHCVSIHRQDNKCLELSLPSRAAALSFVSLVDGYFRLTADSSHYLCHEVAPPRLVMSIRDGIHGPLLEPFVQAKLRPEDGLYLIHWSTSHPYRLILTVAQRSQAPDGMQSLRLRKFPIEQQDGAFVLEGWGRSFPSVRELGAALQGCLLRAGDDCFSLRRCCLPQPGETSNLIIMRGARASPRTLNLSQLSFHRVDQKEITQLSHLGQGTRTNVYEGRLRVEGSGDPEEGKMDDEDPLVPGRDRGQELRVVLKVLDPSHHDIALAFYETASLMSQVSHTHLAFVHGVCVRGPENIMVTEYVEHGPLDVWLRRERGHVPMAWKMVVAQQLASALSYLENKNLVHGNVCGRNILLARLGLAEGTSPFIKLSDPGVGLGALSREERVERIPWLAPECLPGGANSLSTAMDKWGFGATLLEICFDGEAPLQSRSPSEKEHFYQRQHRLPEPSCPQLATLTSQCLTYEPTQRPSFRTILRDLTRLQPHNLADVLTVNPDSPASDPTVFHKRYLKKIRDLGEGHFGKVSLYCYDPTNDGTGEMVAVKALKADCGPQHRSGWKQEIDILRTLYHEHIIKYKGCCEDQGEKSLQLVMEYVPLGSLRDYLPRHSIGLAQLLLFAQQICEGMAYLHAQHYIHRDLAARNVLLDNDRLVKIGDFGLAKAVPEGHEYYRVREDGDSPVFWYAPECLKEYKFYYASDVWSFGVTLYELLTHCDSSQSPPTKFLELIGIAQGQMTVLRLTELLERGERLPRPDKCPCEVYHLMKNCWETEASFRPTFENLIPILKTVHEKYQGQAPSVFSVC

With `CNc1cc(-c2ccc(N3CCC(CN4CC5(CCN(c6cccc7c6n(C)c(=O)n7C6CCC(=O)NC6=O)CC5)C4)CC3)cc2)nn2c(C(=O)N[C@@H]3C[C@@H]3F)cnc12` (mixture of isomers) [Example K533], the DC50 in assay [1], in assay [2] and in assay [3] was > 100 nM throughout.

Take `CNc1cc(N2CCc3c(C4CCN(CC5CCN(C(=O)c6ccc(Cl)c(N7CCC(=O)NC7=O)c6)CC5)CC4)cccc32)nn2c(C(=O)N[C@@H]3C[C@@H]3F)cnc12` (racemic) [Example K535]: the DC50 in assay [1], in assay [2] and in assay [3] was > 100 nM throughout.

Consider `CNc1cc(N2CCc3c(C4CCN(CC5CCN(c6ccc(-c7ccc8c(c7)n(C)c(=O)n8C7CCC(=O)NC7=O)cc6)CC5)CC4)cccc32)nn2c(C(=O)N[C@@H]3C[C@@H]3F)cnc12` (mixture of isomers) [Example K536], for which the values for the DC50 in assay [1], in assay [2] and in assay [3] were > 100 nM, < 1 nM and > 100 nM, respectively.

Regarding `CNc1cc(Nc2cccc(C3CCN(CC4CCN(c5ccc(-c6cccc7c6n(C)c(=O)n7C6CCC(=O)NC6=O)cc5)CC4)CC3)c2OC)nn2c(C(=O)N[C@@H]3C[C@@H]3F)cnc12` (mixture of isomers) [Example K538], the DC50 in assay [1], in assay [2] and in assay [3] was > 100 nM throughout.

As to `COc1c(Nc2cc(C(F)F)c3ncc(C(=O)N[C@@H]4C[C@@H]4F)n3n2)cccc1-c1ccc(CN2CCN(c3ccc(-c4ccc5c(c4)n(C)c(=O)n5C4CCC(=O)NC4=O)cc3)CC2)cn1` (mixture of isomers) [Example K539], the 50% degradation concentration (DC50) in assay [1], in assay [2] and in assay [3] was > 100 nM in each case.

As to `CNc1cc(-c2cn(C)c3c(C4CCN(CC5CCN(c6ccc(-c7ccc8c(c7)n(C)c(=O)n8C7CCC(=O)NC7=O)cc6)CC5)CC4)cccc23)nn2c(C(=O)N[C@@H]3C[C@@H]3F)cnc12` (mixture of isomers) [Example K540], the DC50 in assay [1] is > 100 nM; in assay [2], 1 to 10 nM; in assay [3], > 100 nM.

For `CNc1cc(Nc2cccc(-c3ccc(CN4CCN(c5ccc(-c6ccc7c(c6)n(C)c(=O)n7C6CCC(=O)NC6=O)cc5)CC4)cn3)c2Cl)nn2c(C(=O)N[C@@H]3C[C@@H]3F)cnc12` (mixture of isomers) [Example K541], the 50% degradation concentration (DC50) in assay [1] was > 100 nM; in assay [2] it was < 1 nM; in assay [3], > 100 nM.

Regarding `CNc1cc(Nc2cccc(C#CCN3CCN(c4ccc(-c5ccc6c(c5)n(C)c(=O)n6C5CCC(=O)NC5=O)cc4)CC3)c2OC)nn2c(C(=O)N[C@@H]3C[C@@H]3F)cnc12` (mixture of isomers) [Example K543, 6-({3-[3-(4-{4-[1-(2,6-Dioxopiperidin-3-yl)-3-methyl-2-oxo-1,3-benzodiazol-5-yl]phenyl}piperazin-1-yl)prop-1-yn-1-yl]-2-methoxyphenyl}amino)-N-[(1R,2S)-2-fluorocyclopropyl]-8-(methylamino)imidazo[1,2-b]pyridazine-3-carboxamide], the DC50 in assay [1] was > 100 nM; in assay [2], < 1 nM; in assay [3] it was > 100 nM.

In the case of `CNc1cc(N2CCc3c(-c4ccc(CN5CCC6(CC5)CCN(c5ccc7c(c5)n(C)c(=O)n7C5CCC(=O)NC5=O)CC6)cn4)cccc32)nn2c(C(=O)N[C@@H]3C[C@@H]3F)cnc12` (mixture of isomers) [Example K544], the values for the DC50 in assay [1], in assay [2] and in assay [3] were > 100 nM, < 1 nM and > 100 nM, respectively.

On to `CNc1cc(-c2ccc(N3CCC(CN4CCN(c5ccc(-c6ccc7c(c6)n(C)c(=O)n7C6CCC(=O)NC6=O)cc5)CC4)CC3)cc2)nn2c(C(=O)N[C@@H]3C[C@@H]3F)cnc12` (mixture of isomers) [Example K545], for which the DC50 in assay [1], in assay [2] and in assay [3] was > 100 nM in each case.

On to `CNc1cc(N2CCc3c(-c4ccc(CN5CCN(c6ccc(-c7cccc8c(N9CCC(=O)NC9=O)cncc78)cc6)CC5)cn4)cccc32)nn2c(C(=O)N[C@@H]3C[C@@H]3F)cnc12` (racemic) [Example K546], for which the DC50 in assay [1], in assay [2] and in assay [3] was > 100 nM in each case.

On to `CNc1cc(Oc2cnn(C3CCN(CC4CCN(c5ccc(-c6ccc7c(c6)n(C)c(=O)n7C6CCC(=O)NC6=O)cc5)CC4)CC3)c2)nn2c(C(=O)N[C@@H]3C[C@@H]3F)cnc12` (mixture of isomers) [Example K547], for which the DC50 in assay [1], in assay [2] and in assay [3] was > 100 nM in each case.

For `CNc1cc(Nc2cnn(CC3CCN(CC4CCN(c5ccc6c(c5)n(C)c(=O)n6C5CCC(=O)NC5=O)CC4)CC3)c2)nn2c(C(=O)N[C@@H]3C[C@@H]3F)cnc12` (mixture of isomers) [Example K548], the DC50 in assay [1], in assay [2] and in assay [3] was > 100 nM in each case.

`CNc1cc(Nc2cccc(-c3ccc(CN4CCN([C@H]5CC[C@@H](c6ccc7c(c6)n(C)c(=O)n7C6CCC(=O)NC6=O)CC5)CC4)cn3)c2OC)nn2c(C(=O)N[C@@H]3C[C@@H]3F)cnc12` (mixture of isomers) [Example K552]: the 50% degradation concentration (DC50) in assay [1] is > 100 nM; in assay [2], < 1 nM; in assay [3], < 1 nM.

`CNc1cc(Nc2cccc(-c3ccc(CN4CCN([C@H]5CC[C@H](c6ccc7c(c6)n(C)c(=O)n7C6CCC(=O)NC6=O)CC5)CC4)cn3)c2OC)nn2c(C(=O)N[C@@H]3C[C@@H]3F)cnc12` (mixture of isomers) [Example K553]: the figures for the 50% degradation concentration (DC50) in assay [1], in assay [2] and in assay [3] were > 100 nM, < 1 nM and < 1 nM, respectively.

As to `CNc1cc(N2CCc3c(CN4CCN(c5ccc(-c6ccc7c(c6)n(C)c(=O)n7C6CCC(=O)NC6=O)cc5)CC4)cccc32)nn2c(C(=O)N[C@@H]3C[C@@H]3F)cnc12` (mixture of isomers) [Example K575], the half-maximal degradation concentration (DC50) in assay [1] is > 100 nM; in assay [2] it was 1 to 10 nM; in assay [3] it was > 100 nM.

In the case of `CNC(=O)c1cnc(NC(=O)CCCCCCCc2ccc3c(c2)n(C)c(=O)n3C2CCC(=O)NC2=O)cc1Nc1cccc(-c2ncc(F)cn2)c1OC` (centres unmarked) [Example K104], the DC50 in assay [1], in assay [2] and in assay [3] was > 100 nM each time.

As for `CNC(=O)c1cnc(NC(=O)NCCCCc2cccc3c2n(C)c(=O)n3C2CCC(=O)NC2=O)cc1Nc1cccc(-c2ncc(F)cn2)c1OC` (centres unmarked) [Example K105], the 50% degradation concentration (DC50) in assay [1], in assay [2] and in assay [3] was > 100 nM throughout.

In the case of `CNc1cc(Nc2cccn(-c3cc(C(=O)NCCOCCOCCOCCOCCOCCOCCc4cccc5c4n(C)c(=O)n5C4CCC(=O)NC4=O)ccn3)c2=O)nn2c(C(=O)N[C@@H]3C[C@@H]3F)cnc12` (some centres unmarked) [Example K246], the half-maximal degradation concentration (DC50) in assay [3] was > 100 nM.

Turning to `CNc1cc(Nc2cccc(C(=O)NCCCCc3ccc4c(c3)n(C)c(=O)n4C3CCC(=O)NC3=O)c2)nn2c(C(=O)N[C@@H]3C[C@@H]3F)cnc12` (some centres unmarked) [Example K368], in assay [3], the DC50 was > 100 nM.

With `CNc1cc(Nc2cccn(-c3ccc(C(=O)N4CCC(CN5CCC(c6ccc7c(c6)n(C)c(=O)n7C6CCC(=O)NC6=O)CC5)CC4)cn3)c2=O)nn2c(C(=O)N[C@@H]3C[C@@H]3F)cnc12` (some centres unmarked) [Example K411], the DC50 was < 1 nM in assay [2] and > 100 nM in assay [3].

For `CNc1cc(Nc2cccc(-c3ccc(CN4CCN(c5ccc(-c6ccc7c(c6)n(C)c(=O)n7C6CCC(=O)NC6=O)cc5)CC4)cn3)c2)nn2c(C(=O)N[C@@H]3C[C@@H]3F)cnc12` (some centres unmarked) [Example K511], in assay [3], the half-maximal degradation concentration (DC50) is > 100 nM.
